{"source": "PubChem BioAssay AID1259407", "about": "(Chemical Carcinogenesis Research Information System (CCRIS), 2018)", "system": "CCRIS mutagenicity, Ames/micronucleus/aberration tests", "test": "CCRIS mutagenicity studies", "note": "Calls of active or inactive are those of the source. No rule for the calls is given here."}
{"smiles": "CN1CCN(c2ccc3nc(Cc4ccc5nc(-c6ccc(N(CCCl)CCCl)cc6)[nH]c5c4)[nH]c3c2)CC1", "values": [{"measurement": "mutagenic call", "setting": "Test System: AMES SALMONELLA TYPHIMURIUM, Strain/Indicator: TA98, Metabolic Activation: NONE, Method: STANDARD PLATE", "result": "inactive; negative"}, {"measurement": "mutagenic call", "setting": "Test System: AMES SALMONELLA TYPHIMURIUM, Strain/Indicator: TA100, Metabolic Activation: NONE, Method: STANDARD PLATE", "result": "inactive; negative"}, {"measurement": "mutagenic call", "setting": "Test System: AMES SALMONELLA TYPHIMURIUM, Strain/Indicator: TA102, Metabolic Activation: NONE, Method: STANDARD PLATE", "result": "inactive; negative"}]}
{"smiles": "c1ccc2c(c1)-c1cc3ccccc3c3cc4c(c-2c13)CCCC4", "values": [{"measurement": "mutagenic call", "setting": "Test System: AMES SALMONELLA TYPHIMURIUM, Strain/Indicator: TA100, Metabolic Activation: RAT, LIVER, S-9, 3-METHYLCHOLANTHRENE, Method: STANDARD PLATE", "result": "active; positive"}]}
{"smiles": "CC(=O)Nc1ccc(NC(C)=O)cc1", "values": [{"measurement": "mutagenic call", "setting": "Test System: Ames Salmonella typhimurium, Strain/Indicator: TA98, Metabolic Activation: None, Method: Standard Plate", "result": "inactive; negative"}, {"measurement": "mutagenic call", "setting": "Test System: Ames Salmonella typhimurium, Strain/Indicator: TA100, Metabolic Activation: None, Method: Standard Plate", "result": "inactive; negative"}, {"measurement": "mutagenic call", "setting": "Test System: Ames Salmonella typhimurium, Strain/Indicator: TA102, Metabolic Activation: None, Method: Standard Plate", "result": "inactive; negative"}, {"measurement": "mutagenic call", "setting": "Test System: Ames Salmonella typhimurium, Strain/Indicator: TA1535, Metabolic Activation: None, Method: Standard Plate", "result": "inactive; negative"}, {"measurement": "mutagenic call", "setting": "Test System: Ames Salmonella typhimurium, Strain/Indicator: TA1537, Metabolic Activation: None, Method: Standard Plate", "result": "inactive; negative"}]}
{"smiles": "CC(O)CN", "note": "(centres undefined)", "values": [{"measurement": "mutagenic call", "setting": "Test System: AMES SALMONELLA TYPHIMURIUM, Strain/Indicator: TA98, Metabolic Activation: HAMSTER, LIVER, S-9, AROCLOR 1254 (10%), Method: PREINCUBATION", "result": "inactive; negative"}, {"measurement": "mutagenic call", "setting": "Test System: AMES SALMONELLA TYPHIMURIUM, Strain/Indicator: TA98, Metabolic Activation: NONE, Method: PREINCUBATION", "result": "inactive; negative"}, {"measurement": "mutagenic call", "setting": "Test System: AMES SALMONELLA TYPHIMURIUM, Strain/Indicator: TA98, Metabolic Activation: RAT, LIVER, S-9, AROCLOR 1254 (10%), Method: PREINCUBATION", "result": "inactive; negative"}, {"measurement": "mutagenic call", "setting": "Test System: AMES SALMONELLA TYPHIMURIUM, Strain/Indicator: TA98, Metabolic Activation: RAT, LIVER, S-9, KC 500, Method: PREINCUBATION", "result": "inactive; negative"}, {"measurement": "mutagenic call", "setting": "Test System: AMES SALMONELLA TYPHIMURIUM, Strain/Indicator: TA100, Metabolic Activation: HAMSTER, LIVER, S-9, AROCLOR 1254 (10%), Method: PREINCUBATION", "result": "inactive; negative"}, {"measurement": "mutagenic call", "setting": "Test System: AMES SALMONELLA TYPHIMURIUM, Strain/Indicator: TA100, Metabolic Activation: NONE, Method: PREINCUBATION", "result": "inactive; negative"}, {"measurement": "mutagenic call", "setting": "Test System: AMES SALMONELLA TYPHIMURIUM, Strain/Indicator: TA100, Metabolic Activation: RAT, LIVER, S-9, AROCLOR 1254 (10%), Method: PREINCUBATION", "result": "inactive; negative"}, {"measurement": "mutagenic call", "setting": "Test System: AMES SALMONELLA TYPHIMURIUM, Strain/Indicator: TA100, Metabolic Activation: RAT, LIVER, S-9, KC 500, Method: PREINCUBATION", "result": "inactive; negative"}, {"measurement": "mutagenic call", "setting": "Test System: AMES SALMONELLA TYPHIMURIUM, Strain/Indicator: TA1535, Metabolic Activation: HAMSTER, LIVER, S-9, AROCLOR 1254 (10%), Method: PREINCUBATION", "result": "active; positive"}, {"measurement": "mutagenic call", "setting": "Test System: AMES SALMONELLA TYPHIMURIUM, Strain/Indicator: TA1535, Metabolic Activation: NONE, Method: PREINCUBATION", "result": "inactive; negative"}, {"measurement": "mutagenic call", "setting": "Test System: AMES SALMONELLA TYPHIMURIUM, Strain/Indicator: TA1535, Metabolic Activation: RAT, LIVER, S-9, AROCLOR 1254 (10%), Method: PREINCUBATION", "result": "active; positive"}, {"measurement": "mutagenic call", "setting": "Test System: AMES SALMONELLA TYPHIMURIUM, Strain/Indicator: TA1535, Metabolic Activation: RAT, LIVER, S-9, KC 500, Method: PREINCUBATION", "result": "inactive; negative"}, {"measurement": "mutagenic call", "setting": "Test System: AMES SALMONELLA TYPHIMURIUM, Strain/Indicator: TA1537, Metabolic Activation: HAMSTER, LIVER, S-9, AROCLOR 1254 (10%), Method: PREINCUBATION", "result": "inactive; negative"}, {"measurement": "mutagenic call", "setting": "Test System: AMES SALMONELLA TYPHIMURIUM, Strain/Indicator: TA1537, Metabolic Activation: NONE, Method: PREINCUBATION", "result": "inactive; negative"}, {"measurement": "mutagenic call", "setting": "Test System: AMES SALMONELLA TYPHIMURIUM, Strain/Indicator: TA1537, Metabolic Activation: RAT, LIVER, S-9, AROCLOR 1254 (10%), Method: PREINCUBATION", "result": "inactive; negative"}, {"measurement": "mutagenic call", "setting": "Test System: AMES SALMONELLA TYPHIMURIUM, Strain/Indicator: TA1537, Metabolic Activation: RAT, LIVER, S-9, KC 500, Method: PREINCUBATION", "result": "inactive; negative"}, {"measurement": "mutagenic call", "setting": "Test System: AMES SALMONELLA TYPHIMURIUM, Strain/Indicator: TA1538, Metabolic Activation: NONE, Method: PREINCUBATION", "result": "inactive; negative"}, {"measurement": "mutagenic call", "setting": "Test System: AMES SALMONELLA TYPHIMURIUM, Strain/Indicator: TA1538, Metabolic Activation: RAT, LIVER, S-9, KC 500, Method: PREINCUBATION", "result": "inactive; negative"}, {"measurement": "mutagenic call", "setting": "Test System: Ames Salmonella typhimurium, Strain/Indicator: TA98, Metabolic Activation: None, Method: Preincubation", "result": "inactive; negative"}, {"measurement": "mutagenic call", "setting": "Test System: Ames Salmonella typhimurium, Strain/Indicator: TA98, Metabolic Activation: Rat, Liver, S9, Sodium phenobarbital and 5,6-benzoflavone (10%), Method: Preincubation", "result": "inactive; negative"}, {"measurement": "mutagenic call", "setting": "Test System: Ames Salmonella typhimurium, Strain/Indicator: TA100, Metabolic Activation: None, Method: Preincubation", "result": "inactive; negative"}, {"measurement": "mutagenic call", "setting": "Test System: Ames Salmonella typhimurium, Strain/Indicator: TA100, Metabolic Activation: Rat, Liver, S9, Sodium phenobarbital and 5,6-benzoflavone (10%), Method: Preincubation", "result": "inactive; negative"}, {"measurement": "mutagenic call", "setting": "Test System: Ames Salmonella typhimurium, Strain/Indicator: TA1535, Metabolic Activation: None, Method: Preincubation", "result": "inactive; negative"}, {"measurement": "mutagenic call", "setting": "Test System: Ames Salmonella typhimurium, Strain/Indicator: TA1535, Metabolic Activation: Rat, Liver, S9, Sodium phenobarbital and 5,6-benzoflavone (10%), Method: Preincubation", "result": "inactive; negative"}, {"measurement": "mutagenic call", "setting": "Test System: Ames Salmonella typhimurium, Strain/Indicator: TA1537, Metabolic Activation: None, Method: Preincubation", "result": "inactive; negative"}, {"measurement": "mutagenic call", "setting": "Test System: Ames Salmonella typhimurium, Strain/Indicator: TA1537, Metabolic Activation: Rat, Liver, S9, Sodium phenobarbital and 5,6-benzoflavone (10%), Method: Preincubation", "result": "inactive; negative"}, {"measurement": "mutagenic call", "setting": "Test System: E. COLI, Strain/Indicator: WP2 UVRA, Metabolic Activation: NONE, Method: PREINCUBATION", "result": "inactive; negative"}, {"measurement": "mutagenic call", "setting": "Test System: E. COLI, Strain/Indicator: WP2 UVRA, Metabolic Activation: RAT, LIVER, S-9, KC 500, Method: PREINCUBATION", "result": "inactive; negative"}, {"measurement": "mutagenic call", "setting": "Test System: E. coli, Strain/Indicator: WP2uvrA/pKM101, Metabolic Activation: None, Method: Preincubation", "result": "inactive; negative"}, {"measurement": "mutagenic call", "setting": "Test System: E. coli, Strain/Indicator: WP2uvrA/pKM101, Metabolic Activation: Rat, Liver, S9, Sodium phenobarbital and 5,6-benzoflavone (10%), Method: Preincubation", "result": "inactive; negative"}]}
{"smiles": "P", "values": [{"measurement": "mutagenic call", "setting": "Test System: AMES SALMONELLA TYPHIMURIUM, Strain/Indicator: TA98, Metabolic Activation: NONE, Method: GAS EXPOSURE", "result": "inactive; negative"}, {"measurement": "mutagenic call", "setting": "Test System: AMES SALMONELLA TYPHIMURIUM, Strain/Indicator: TA98, Metabolic Activation: RAT LIVER S-9, PHENOBARBITAL AND BETA-NAPHTHOFLAVONE, Method: GAS EXPOSURE", "result": "inactive; negative"}, {"measurement": "mutagenic call", "setting": "Test System: AMES SALMONELLA TYPHIMURIUM, Strain/Indicator: TA100, Metabolic Activation: NONE, Method: GAS EXPOSURE", "result": "inactive; negative"}, {"measurement": "mutagenic call", "setting": "Test System: AMES SALMONELLA TYPHIMURIUM, Strain/Indicator: TA100, Metabolic Activation: RAT LIVER S-9, PHENOBARBITAL AND BETA-NAPHTHOFLAVONE, Method: GAS EXPOSURE", "result": "inactive; negative"}, {"measurement": "mutagenic call", "setting": "Test System: AMES SALMONELLA TYPHIMURIUM, Strain/Indicator: TA1535, Metabolic Activation: NONE, Method: GAS EXPOSURE", "result": "inactive; negative"}, {"measurement": "mutagenic call", "setting": "Test System: AMES SALMONELLA TYPHIMURIUM, Strain/Indicator: TA1535, Metabolic Activation: RAT LIVER S-9, PHENOBARBITAL AND BETA-NAPHTHOFLAVONE, Method: GAS EXPOSURE", "result": "inactive; negative"}, {"measurement": "mutagenic call", "setting": "Test System: AMES SALMONELLA TYPHIMURIUM, Strain/Indicator: TA1537, Metabolic Activation: NONE, Method: GAS EXPOSURE", "result": "inactive; negative"}, {"measurement": "mutagenic call", "setting": "Test System: AMES SALMONELLA TYPHIMURIUM, Strain/Indicator: TA1537, Metabolic Activation: RAT LIVER S-9, PHENOBARBITAL AND BETA-NAPHTHOFLAVONE, Method: GAS EXPOSURE", "result": "inactive; negative"}, {"measurement": "mutagenic call", "setting": "Test System: E.COLI, Strain/Indicator: WP2UVRA, Metabolic Activation: NONE, Method: GAS EXPOSURE", "result": "inactive; negative"}, {"measurement": "mutagenic call", "setting": "Test System: E.COLI, Strain/Indicator: WP2UVRA, Metabolic Activation: RAT LIVER S-9, PHENOBARBITAL AND BETA-NAPHTHOFLAVONE, Method: GAS EXPOSURE", "result": "inactive; negative"}]}
